ChEMBL document CHEMBL1201862, “PubChem BioAssay data set” (2004)
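1) Cells in 96-well plates. 2) Compound, 48 h, 5 concentrations. 3) Linear interpolation between surrounding doses. 4) Unreached endpoint = highest concentration. At the GI50, growth is halved.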 Active and inactive are the calls of the source. No stated cut-off is given here; in the data, active = GI50 up to about 1.1 µM and inactive = higher.

Key:
Test in all cases: NCI-60 cell line screen, 48 h
A498 = tested on: A498
A549 = tested on: A549
BT-549 = tested on: BT-549
CCRF-CEM = tested on: CCRF-CEM
DU-145 = tested on: DU-145
HCT-116 = tested on: HCT-116
HT-29 = tested on: HT-29
KM12 = tested on: KM12
MCF7 = tested on: MCF7
MOLT-4 = tested on: MOLT-4
NCI-H226 = tested on: NCI-H226
NCI/ADR-RES = tested on: NCI/ADR-RES
PC-3 = tested on: PC-3
RPMI-8226 = tested on: RPMI-8226
SF-539 = tested on: SF-539
SK-MEL-5 = tested on: SK-MEL-5
SR = tested on: SR
SW-620 = tested on: SW-620
UACC-257 = tested on: UACC-257
UACC-62 = tested on: UACC-62

Measured: GI50

COc1cc(/C=C/C(=N\NC(N)=S)c2sc(NNC(C)=O)nc2C)ccc1O
inactive: A498 > 100 µM | A549 > 100 µM | BT-549 > 100 µM | CCRF-CEM > 100 µM | DU-145 > 100 µM | HCT-116 > 100 µM | HT-29 > 100 µM | KM12 > 100 µM | MCF7 > 100 µM | MOLT-4 > 100 µM | NCI-H226 > 100 µM | NCI/ADR-RES > 100 µM | PC-3 > 100 µM | RPMI-8226 > 100 µM | SF-539 > 100 µM | SK-MEL-5 > 100 µM | SR > 100 µM | SW-620 > 100 µM | UACC-257 > 100 µM | UACC-62 > 100 µM

CC1=C(C(=O)OCCO[N+](=O)[O-])C(c2ccccc2C(F)(F)F)C(C(=O)OC(C)C)=C(C)N1 (stereo not given)
inactive: A498 24.1 µM | A549 13.2 µM | BT-549 13.5 µM | CCRF-CEM 27.3 µM | DU-145 39.4 µM | HCT-116 9.84 µM | HT-29 14.2 µM | KM12 8.63 µM | MCF7 16 µM | MOLT-4 4.7 µM | NCI-H226 9.73 µM | NCI/ADR-RES 14.3 µM | PC-3 3.36 µM | RPMI-8226 5.12 µM | SF-539 17.3 µM | SK-MEL-5 10 µM | SR 41.7 µM | SW-620 30.1 µM | UACC-257 11.2 µM | UACC-62 19.3 µM

c1ccc(CN[C@]23C4C5CC6C7C5C2C7[C@@](NCc2ccccc2)(C64)N3Cc2ccccc2)cc1 (stereo not given in full)
inactive: A498 > 100 µM | A549 > 100 µM | BT-549 > 100 µM | CCRF-CEM > 100 µM | DU-145 > 100 µM | HCT-116 > 100 µM | HT-29 > 100 µM | KM12 > 100 µM | MCF7 > 100 µM | MOLT-4 > 100 µM | NCI-H226 > 100 µM | NCI/ADR-RES > 100 µM | PC-3 > 100 µM | RPMI-8226 > 100 µM | SF-539 > 100 µM | SK-MEL-5 > 100 µM | SR 3.94 µM | SW-620 > 100 µM | UACC-257 > 100 µM | UACC-62 > 100 µM

COc1c2c(cc3c1OCO3)C13C=CC(OC)CC1N(CC3)C2.[O-][Cl+3]([O-])([O-])O (stereo not given)
inactive: A498 > 100 µM | A549 > 100 µM | BT-549 > 100 µM | CCRF-CEM > 100 µM | DU-145 > 100 µM | HCT-116 > 100 µM | HT-29 71 µM | KM12 51.1 µM | MCF7 > 100 µM | MOLT-4 36.4 µM | NCI-H226 > 100 µM | NCI/ADR-RES > 100 µM | PC-3 > 100 µM | RPMI-8226 > 100 µM | SF-539 > 100 µM | SK-MEL-5 29 µM | SR 4.9 µM | SW-620 > 100 µM | UACC-257 > 100 µM | UACC-62 > 100 µM

O=C(O)CC(Cc1ccc2c(c1)OCO2)C(=O)O (stereo not given)
inactive: A498 > 100 µM | A549 > 100 µM | BT-549 > 100 µM | CCRF-CEM 56.2 µM | DU-145 > 100 µM | HCT-116 > 100 µM | HT-29 > 100 µM | KM12 > 100 µM | MCF7 > 100 µM | MOLT-4 > 100 µM | NCI-H226 > 100 µM | NCI/ADR-RES > 100 µM | PC-3 > 100 µM | RPMI-8226 > 100 µM | SF-539 > 100 µM | SK-MEL-5 > 100 µM | SR > 100 µM | SW-620 > 100 µM | UACC-257 > 100 µM | UACC-62 > 100 µM
